The values that follow are results of earlier work, collected in patent US20100297147A1, “COMPOSITIONS AND METHODS FOR MODULATING TLR14 ACTIVITY” (WYETH, priority 2006, published 2010).

For this series, the system named is postnatal day 4 rat cerebellar granule neurons. The conditions noted are these: positive control, used at 10 uM.

In the case of `C[C@@H](N)[C@H]1CC[C@H](C(=O)Nc2ccncc2)CC1` [Y-27632], the “neurite outgrowth in the presence of myelin (known activity of control compound)” value was “known to induce neurite outgrowth in the presence of myelin”.
